Like-named read-outs stand apart in the source and are kept apart here.
Columns and labels:
THP1 cells (FLT3 WT) = assay: Combination drug screening with venetoclax in THP1 cells (Cell Titre Glo, 10 × 10); assay type: cell-based; conditions: for Excess HSA (sum excess HSA score, combination with venetoclax): 10 × 10 dataset, Cell Titre Glo at 48 hours, optimal of 4 dose combinations, negative = synergy; for Concentration needed to decrease the 312.5 nM Venetoclax response to <20%: Cell Titer Glo at 48 hours
Experimental: (§1) These assays were performed using the Cell Titre Glo assay, measured at 48 hours.
(§2) A smaller concentration indicates higher potency to synergize with Venetoclax.

[1] = tested on: MOLM14-D835Y cells (FLT3-ITD (D835Y) mutant); assay: Combination drug screening with venetoclax in MOLM14 (D835Y) cells (Cell Titre Glo, 10 × 10); assay type: cell-based; design: Excess HSA (sum excess HSA score, combination with venetoclax): scale not given here; conditions: for Excess HSA (sum excess HSA score, combination with venetoclax): 10 × 10 dataset, Cell Titre Glo at 48 hours, optimal of 4 dose combinations, negative = synergy; for Concentration of a compound of the disclosure, or gilteritinib, needed to decrease the 62.5 nM Ven response to <10% in MOLM14(D835Y) cells: combination with 62.5 nM Venetoclax, Cell Titer Glo, 48 hours, response <10%
Experimental: as §1, §2

IRAK1 = biological target: T1, IRAK1 (Homo sapiens, UniProt P51617); assay: RBC HotSpot Kinase Assay, IRAK1; assay type: biochemical; conditions: isolated kinase enzyme, 33P-ATP, P81 filter-binding
T1 construct: purchased Reaction Biology (RBC HotSpot)
T1 sequence (P51617 whole entry): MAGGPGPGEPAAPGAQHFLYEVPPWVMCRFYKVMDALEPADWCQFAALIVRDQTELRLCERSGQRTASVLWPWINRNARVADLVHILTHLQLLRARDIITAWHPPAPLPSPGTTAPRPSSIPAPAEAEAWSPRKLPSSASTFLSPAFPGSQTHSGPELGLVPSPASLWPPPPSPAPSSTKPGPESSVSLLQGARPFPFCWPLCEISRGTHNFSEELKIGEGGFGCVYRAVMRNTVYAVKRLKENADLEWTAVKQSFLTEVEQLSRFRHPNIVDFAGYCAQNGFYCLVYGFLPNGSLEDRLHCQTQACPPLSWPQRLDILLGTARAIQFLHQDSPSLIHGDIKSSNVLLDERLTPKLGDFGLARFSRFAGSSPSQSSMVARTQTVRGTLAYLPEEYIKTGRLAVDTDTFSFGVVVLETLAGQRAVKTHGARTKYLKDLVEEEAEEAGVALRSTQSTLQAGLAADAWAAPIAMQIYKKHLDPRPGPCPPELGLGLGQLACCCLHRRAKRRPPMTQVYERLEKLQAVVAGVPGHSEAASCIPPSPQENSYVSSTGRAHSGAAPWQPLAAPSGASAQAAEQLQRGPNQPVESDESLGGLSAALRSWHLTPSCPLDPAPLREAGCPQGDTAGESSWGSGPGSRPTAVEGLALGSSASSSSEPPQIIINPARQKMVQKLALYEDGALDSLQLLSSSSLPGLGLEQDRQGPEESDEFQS
How it was run: (§3)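 Reactions ran in 20 mM Hepes (pH 7.5) containing 10 mM MgCl2, 1 mM EGTA, 0.1 mM Na3VO4, 2 mM DTT, 0.02 mg/ml BSA, 0.01% Brij35 and 1% DMSO, plus required cofactors. Functional activity readout on the expressible enzyme form, sometimes C-terminally truncated or lacking receptor regulatory regions.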

MOLM14 F691L cells = assay: MOLM14 F691L cell viability assay (Cell Titer Glo); assay type: cell-based; conditions: Homo sapiens, MOLM-14; cell viability, Cell Titer Glo, 48 hours; read-out: MOLM14 F691L IC50
How it was run: (§4)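 Luminescent ATP read-out (CellTiter-Glo, 15 min room temperature) taken 48 h after compound addition. Cells were MOLM14 carrying FLT3 D835Y or F691L mutations, plated at 1000 cells per well.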

FLT3 = biological target: T2, FLT3 (Homo sapiens, UniProt P36888); assay: RBC HotSpot Kinase Assay, FLT3; assay type: biochemical; design: purchased Reaction Biology (RBC HotSpot); conditions: isolated kinase enzyme, 33P-ATP, P81 filter-binding
T2 sequence (P36888 27-993): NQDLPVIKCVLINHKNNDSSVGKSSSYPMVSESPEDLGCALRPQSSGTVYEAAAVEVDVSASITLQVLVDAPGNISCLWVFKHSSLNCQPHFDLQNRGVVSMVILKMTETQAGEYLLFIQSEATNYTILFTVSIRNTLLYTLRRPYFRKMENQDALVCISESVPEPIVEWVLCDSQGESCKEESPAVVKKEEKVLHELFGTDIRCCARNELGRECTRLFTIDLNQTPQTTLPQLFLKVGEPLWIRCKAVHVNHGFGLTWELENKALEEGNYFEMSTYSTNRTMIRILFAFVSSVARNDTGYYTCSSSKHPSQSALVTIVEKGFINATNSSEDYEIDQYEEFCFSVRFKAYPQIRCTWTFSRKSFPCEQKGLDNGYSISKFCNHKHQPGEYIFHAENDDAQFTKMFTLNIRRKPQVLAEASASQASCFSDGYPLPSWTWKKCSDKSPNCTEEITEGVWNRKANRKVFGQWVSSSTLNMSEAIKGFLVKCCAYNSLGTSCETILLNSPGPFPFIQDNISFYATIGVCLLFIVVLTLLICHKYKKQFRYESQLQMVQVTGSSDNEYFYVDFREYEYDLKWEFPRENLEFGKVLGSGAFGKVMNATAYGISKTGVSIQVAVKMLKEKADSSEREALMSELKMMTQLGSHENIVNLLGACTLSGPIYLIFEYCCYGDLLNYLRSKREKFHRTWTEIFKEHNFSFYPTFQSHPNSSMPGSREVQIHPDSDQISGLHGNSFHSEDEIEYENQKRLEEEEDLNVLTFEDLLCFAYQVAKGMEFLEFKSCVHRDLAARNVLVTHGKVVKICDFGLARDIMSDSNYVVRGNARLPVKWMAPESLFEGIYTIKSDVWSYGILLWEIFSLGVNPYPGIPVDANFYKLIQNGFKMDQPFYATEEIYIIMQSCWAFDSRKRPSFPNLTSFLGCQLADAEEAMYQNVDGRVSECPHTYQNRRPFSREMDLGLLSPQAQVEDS
How it was run: as §3

[2] = tested on: NF-κB-inducible SEAP reporter in THP-1-Blue NF-κB cells; assay: NF-kB SEAP reporter assay in THP-1-Blue NF-κB cells; assay type: cell-based; conditions: 24 hours
Experimental: THP-1-Blue NF-κB cells (InvivoGen) carrying a stable integrated NF-κB-inducible secreted embryonic alkaline phosphatase (SEAP) reporter construct were plated at a concentration of 1×10^5 cells per well. The cells were stimulated with Pam3CSK4 (1 ng/mL) or hIL1B (1 ng/mL). After 10-20 minutes, the cells were then treated with vehicle (DMSO) or serial dilutions of the test compounds (10 doses tested for each test compound, with a 1:10 dilution series starting at 1 μM or 3 μM) with a final volume of 200 μL for 24 hours at 37° C. After 24 hours, the cells were centrifuged and 20 μL supernatant was incubated with 180 μL QUANTI-Blue reagent at 37° C. for 30-60 minutes. The levels of NF-κB-induced was measured in a microplate reader at 620 nm.

MOLM14 D835Y cells = assay: MOLM14 D835Y cell viability assay (Cell Titer Glo); assay type: cell-based; conditions: Homo sapiens, MOLM-14, 48 h, cell viability, Cell Titer Glo, 48 hours; read-out: MOLM14 D835Y IC50
How it was run: as §4

IRAK4 = biological target: T3, IRAK4 (Homo sapiens, UniProt Q9NWZ3); assay: RBC HotSpot Kinase Assay, IRAK4; assay type: biochemical; design: purchased Reaction Biology (RBC HotSpot); conditions: isolated kinase enzyme, 33P-ATP, P81 filter-binding
T3 sequence (Q9NWZ3 1-460): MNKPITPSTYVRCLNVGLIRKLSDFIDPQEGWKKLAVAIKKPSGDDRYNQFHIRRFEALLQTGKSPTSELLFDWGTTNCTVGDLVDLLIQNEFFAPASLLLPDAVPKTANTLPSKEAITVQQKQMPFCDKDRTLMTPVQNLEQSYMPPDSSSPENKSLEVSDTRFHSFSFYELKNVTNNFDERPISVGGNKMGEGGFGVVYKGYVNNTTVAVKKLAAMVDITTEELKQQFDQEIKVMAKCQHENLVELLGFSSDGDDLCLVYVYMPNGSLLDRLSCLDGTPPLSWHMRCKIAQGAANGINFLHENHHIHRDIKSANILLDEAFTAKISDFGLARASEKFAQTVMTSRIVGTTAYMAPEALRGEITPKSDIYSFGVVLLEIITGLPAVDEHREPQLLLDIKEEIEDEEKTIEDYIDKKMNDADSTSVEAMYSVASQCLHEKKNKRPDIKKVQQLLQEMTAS
How it was run: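 Radiometric filter-binding activity assay with isolated recombinant kinase (construct may be truncated or catalytic domain only) in 20 mM Hepes pH 7.5, 10 mM MgCl2, 1 mM EGTA, 2 mM DTT, 1% DMSO. Compound preincubated 20 min with kinase/substrate; reaction started with 33P-ATP, run 2 h at room temperature.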

[3] = THP-1-Blue NF-κB cells stimulated with Pam3CSK4 (1 ng/mL), read-out: NF-κB Pam3SCK4 IC50
[4] = THP-1-Blue NF-κB cells stimulated with hIL1B (1 ng/mL), read-out: NF-κB IL1B IC50

Row | Compound | Excess HSA (sum excess HSA score, combination with venetoclax) (THP1 cells (FLT3 WT)) | Concentration needed to decrease the 312.5 nM Venetoclax response to <20% (THP1 cells (FLT3 WT)) | Excess HSA (sum excess HSA score, combination with venetoclax) [1] | Concentration of a compound of the disclosure, or gilteritinib, needed to decrease the 62.5 nM Ven response to <10% in MOLM14(D835Y) cells [1] | IC50 (IRAK1) | IC50 (MOLM14 F691L cells) | IC50 (FLT3) | IC50 [2, 3] | IC50 [2, 4] | IC50 (MOLM14 D835Y cells) | IC50 (IRAK4)
1 | CCc1nc(C(N)=O)c(Nc2ccc(N3CCC(N4CCN(C)CC4)CC3)c(OC)c2)nc1NC1CCOCC1 [Gilteritinib, reference compound] | −1626 | 10 µM | −1556 | 125 nM | – | – | – | – | – | – | –
2 | COc1cc2ncc(-c3nc(N[C@@H]4CCCNC4)ncc3F)n2nc1N1CCOCC1 [Compound 120a, (R)-5-fluoro-4-(7-methoxy-6-morpholinoimidazo[1,2-b]pyridazin-3-yl)-N-(piperidin-3-yl)pyrimidin-2-amine] | – | – | – | – | 10 nM | 45 nM | < 0.5 nM | 339 nM | 217 nM | 5 nM | 10 nM
3 | COc1cc2ncc(-c3nc(N[C@H]4CNC[C@@H]4F)ncc3F)n2nc1N1CCOCC1 [Compound 119a, 5-fluoro-N-((3S,4S)-4-fluoropyrrolidin-3-yl)-4-(7-methoxy-6-morpholinoimidazo[1,2-b]pyridazin-3-yl)pyrimidin-2-amine] | – | – | – | – | 1 nM | 45 nM | < 0.5 nM | 57 nM | 69 nM | 4 nM | < 0.5 nM
4 | COc1cc2ncc(-c3nc(N[C@H]4CNCC[C@@H]4F)ncc3F)n2nc1N1CCS(=O)(=O)CC1 [Compound 122a, 4-(3-(5-fluoro-2-(((3S,4S)-4-fluoropiperidin-3-yl)amino)pyrimidin-4-yl)-7-methoxyimidazo[1,2-b]pyridazin-6-yl)thiomorpholine 1,1-dioxide] | – | – | – | – | 22 nM | 127 nM | < 0.5 nM | 407 nM | 407 nM | 11 nM | 18 nM
5 | CC(O)(c1ccc2ncc(-c3nc(N[C@H]4CNCC[C@@H]4F)ncc3F)n2c1)C(F)(F)F (single isomer, unassigned) [Compound 34a] | −683.5 | 1.25 µM | −1437.9420 | 100 nM | 4 nM | – | 0.6 nM | – | – | 51 nM | 2 nM
6 | COc1cc2ncc(-c3nc(N[C@@H]4CCCNC4)ncc3F)n2nc1C1COC1 [Compound 94a, (R)-5-fluoro-4-(7-methoxy-6-(oxetan-3-yl)imidazo[1,2-b]pyridazin-3-yl)-N-(piperidin-3-yl)pyrimidin-2-amine] | – | – | – | – | 28 nM | 40 nM | < 0.5 nM | 188 nM | 206 nM | 6 nM | 4 nM
7 | COc1cc2ncc(-c3nc(N[C@@H]4CCCNC4)ncc3F)n2nc1C12CC(C1)C2 [Compound 68a, (R)-4-(6-(bicyclo[1.1.1]pentan-1-yl)-7-methoxyimidazo[1,2-b]pyridazin-3-yl)-5-fluoro-N-(piperidin-3-yl)pyrimidin-2-amine] | – | – | – | – | 0.9 nM | 20 nM | < 0.5 nM | 144 nM | 108 nM | 3 nM | 0.8 nM
8 | COc1cc2ncc(-c3nc(N[C@H]4CNCC[C@@H]4F)ncc3F)n2nc1N1CCOCC1 [Compound 121a, 5-fluoro-N-((3S,4S)-4-fluoropiperidin-3-yl)-4-(7-methoxy-6-morpholinoimidazo[1,2-b]pyridazin-3-yl)pyrimidin-2-amine] | – | – | – | – | 1 nM | 20 nM | < 0.5 nM | 89 nM | 57 nM | 2 nM | 0.7 nM
9 | COc1cc2ncc(-c3nc(N[C@H]4CNCC[C@@H]4F)ncc3F)n2nc1[C@H]1C[C@H](O)C1 [Compound 125a, (Trans)-3-(3-(5-fluoro-2-(((3S,4S)-4-fluoropiperidin-3-yl)amino)pyrimidin-4-yl)-7-methoxyimidazo[1,2-b]pyridazin-6-yl)cyclobutan-1-ol] | – | – | – | – | < 0.5 nM | 16 nM | < 0.5 nM | 30 nM | 29 nM | 2 nM | < 0.5 nM
10 | COc1cnc(N[C@H]2CNC[C@@H]2F)nc1-c1cnc2cc(OC)c(C3CC3)nn12 [Compound 104a, 4-(6-cyclopropyl-7-methoxyimidazo[1,2-b]pyridazin-3-yl)-N-((3S,4S)-4-fluoropyrrolidin-3-yl)-5-methoxypyrimidin-2-amine] | – | – | −2179 | – | 4860 nM | 6340 nM | 14 nM | – | – | 711 nM | 25 nM
11 | COc1cc2ncc(-c3nc(N[C@@H]4CCCNC4)ncc3F)n2nc1C1CC1 [Compound 3a, (R)-4-(6-cyclopropyl-7-methoxyimidazo[1,2-b]pyridazin-3-yl)-5-fluoro-N-(piperidin-3-yl)pyrimidin-2-amine] | – | – | – | – | 2 nM | 5 nM | < 0.5 nM | 40 nM | 58 nM | 1 nM | < 0.5 nM

From US20260226048A1, “MULTI-CYCLIC IRAK AND FLT3 INHIBITING COMPOUNDS AND USES THEREOF” (CHILDREN'S HOSPITAL MEDICAL CENTER, priority 2023, published 2026)
